Key:
Test in all cases: B2 Post-Emergence Efficacy - Test 2
Format in all cases: in vivo
Glycine max (GLXMA) = conditions: 15 days after application; for Herbicidal activity GLXMA: 0-100 scale; for Herbicidal activity on a 0-100 scale, GLXMA: 0=no damage, 100=total kill
Outline: (§1)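 Score 0–100 (0 none, 100 kill), 15 d after spraying. Treatment: IF50 formulation in aqueous spray, adjuvant Genapol X080 at 0.2% v/v, applied to plants 12 d after sowing. Glasshouse day/night 24/18 or 20/16 °C, 16 h light, 65% humidity.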

[1] = tested on: Triticum aestivum (TRZAW); conditions: 15 days after application, 0-100 scale
Outline: as §1

[2] = tested on: Polygonum convolvulus (POLCO); conditions: 15 days after application, 0-100 scale
Outline: as §1

Compound | Herbicidal activity GLXMA (Glycine max (GLXMA); 15 g/Ha) | Herbicidal activity on a 0-100 scale, GLXMA (Glycine max (GLXMA); 15 g/Ha) | Herbicidal activity GLXMA (Glycine max (GLXMA); 30 g/Ha) | Herbicidal activity on a 0-100 scale, GLXMA (Glycine max (GLXMA); 30 g/Ha) | Herbicidal activity GLXMA (Glycine max (GLXMA); 60 g/Ha) | Herbicidal activity on a 0-100 scale, GLXMA (Glycine max (GLXMA); 60 g/Ha) | Herbicidal activity GLXMA (Glycine max (GLXMA); 250 g/Ha) | Herbicidal activity on a 0-100 scale, GLXMA (Glycine max (GLXMA); 250 g/Ha) | Herbicidal activity GLXMA (Glycine max (GLXMA); 500 g/Ha) | Herbicidal activity on a 0-100 scale, GLXMA (Glycine max (GLXMA); 500 g/Ha) | Herbicidal activity TRZAW ([1]; 15 g/Ha) | Herbicidal activity TRZAW ([1]; 30 g/Ha) | Herbicidal activity TRZAW ([1]; 60 g/Ha) | Herbicidal activity TRZAW ([1]; 125 g/Ha) | Herbicidal activity TRZAW ([1]; 250 g/Ha) | Herbicidal activity TRZAW ([1]; 500 g/Ha) | Herbicidal activity POLCO ([2]; 15 g/Ha) | Herbicidal activity POLCO ([2]; 60 g/Ha) | Herbicidal activity POLCO ([2]; 125 g/Ha) | Herbicidal activity POLCO ([2]; 250 g/Ha) | further results
Cc1nn(C)c(=O)c(-c2c(F)ccc(Cl)c2CCc2ccc(C#N)cc2)c1O [Compound 1.024, 4-[3-chloro-6-fluoro-2-[2-[4-(cyano)phenyl]ethyl]phenyl]-5-hydroxy-2,6-dimethyl-pyridazin-3-one] | 70 | 70 | 80 | 80 | 90 | 90 | 100 | 100 | 100 | 100 | 0 | 0 | 20 | 30 | 60 | 70 | 80 | 90 | 90 | 90 | Herbicidal activity GLXMA (Glycine max (GLXMA); 125 g/Ha): 90; Herbicidal activity on a 0-100 scale, GLXMA (Glycine max (GLXMA); 125 g/Ha): 90; Herbicidal activity POLCO ([2]; 500 g/Ha): 100
Cc1nn(C)c(=O)c(-c2c(F)ccc(Cl)c2CCc2ccc(C(F)(F)F)nc2)c1O [Compound 1.042, 4-[3-chloro-6-fluoro-2-[2-[6-(trifluoromethyl)-3-pyridyl]ethyl]phenyl]-5-hydroxy-2,6-dimethyl-pyridazin-3-one] | 60 | 60 | 80 | 80 | 90 | 90 | 100 | 100 | 100 | 100 | 20 | 30 | 60 | 70 | 80 | 80 | 80 | 90 | 90 | 90 | Herbicidal activity GLXMA (Glycine max (GLXMA); 125 g/Ha): 90; Herbicidal activity on a 0-100 scale, GLXMA (Glycine max (GLXMA); 125 g/Ha): 90; Herbicidal activity POLCO ([2]; 30 g/Ha): 80; Herbicidal activity POLCO ([2]; 500 g/Ha): 100
Cc1nn(C)c(=O)c(-c2c(F)ccc(Cl)c2CCc2ccc(F)cc2)c1O [Compound 1.048, 4-[3-chloro-6-fluoro-2-[2-(4-fluorophenyl)ethyl]phenyl]-5-hydroxy-2,6-dimethyl-pyridazin-3-one] | 70 | 70 | 80 | 80 | 90 | 90 | 90 | 90 | 100 | 100 | 0 | 10 | 20 | 20 | 50 | 80 | 60 | 90 | 90 | 90 | Herbicidal activity GLXMA (Glycine max (GLXMA); 125 g/Ha): 90; Herbicidal activity on a 0-100 scale, GLXMA (Glycine max (GLXMA); 125 g/Ha): 90; Herbicidal activity POLCO ([2]; 30 g/Ha): 70; Herbicidal activity POLCO ([2]; 500 g/Ha): 90
Cc1nn(C)c(=O)c(-c2c(F)ccc(Cl)c2CCc2ccccc2C(F)(F)F)c1O [Compound 1.066, 4-[3-chloro-6-fluoro-2-[2-[2-(trifluoromethyl)phenyl]ethyl]phenyl]-5-hydroxy-2,6-dimethyl-pyridazin-3-one] | 20 | 20 | 40 | 40 | 70 | 70 | 90 | 90 | 90 | 90 | 0 | 10 | 40 | 60 | 70 | 80 | 70 | 90 | 90 | 100 | Herbicidal activity GLXMA (Glycine max (GLXMA); 125 g/Ha): 70; Herbicidal activity on a 0-100 scale, GLXMA (Glycine max (GLXMA); 125 g/Ha): 70; Herbicidal activity POLCO ([2]; 30 g/Ha): 80; Herbicidal activity POLCO ([2]; 500 g/Ha): 100
Cc1nn(C)c(=O)c(-c2c(F)ccc(Cl)c2CCc2ccc(Cl)cc2)c1OC(=O)C(C)C [Compound 1.089, [5-[3-chloro-2-[2-(4-chlorophenyl)ethyl]-6-fluoro-phenyl]-1,3-dimethyl-6-oxo-pyridazin-4-yl] 2-methylpropanoate] | – | – | 70 | 70 | 80 | 80 | 100 | 100 | 100 | 100 | 0 | 0 | 20 | 30 | 60 | 70 | – | – | – | – | –
Cc1nn(C)c(=O)c(-c2c(F)ccc(Cl)c2CCc2ccc(F)cc2)c1OC(=O)C(C)C [Compound 1.125, [5-[3-chloro-6-fluoro-2-[2-(4-fluorophenyl)ethyl]phenyl]-1,3-dimethyl-6-oxo-pyridazin-4-yl] 2-methylpropanoate] | 40 | 40 | 70 | 70 | 70 | 70 | 90 | 90 | 90 | 90 | 0 | 10 | 10 | 20 | 30 | 50 | 90 | 90 | 90 | 90 | Herbicidal activity POLCO ([2]; 30 g/Ha): 90; Herbicidal activity POLCO ([2]; 500 g/Ha): 90

Source: patent US20230301300A1, “HERBICIDAL COMPOSITIONS” (SYNGENTA CROP PROTECTION AG, priority 2020, published 2023)
